In patent publication US4221805A, “Method of inducing platelet antiaggregation activity” (priority 1978, dated 1980):

Key:
stomach (gastric lesion) [1] = assay: Ulcerogenic activity in rats after prolonged administration; type: in vivo, male albino rats, Wistar strain
Method: The ulcerogenic activity of MRAP2 was tested both after a single administration of the drug, and after prolonged administration. In these tests, a total of 70 male albino rats of Wistar strain were used, having a weight of 200±20 grams. The MRAP2 was administered diluted in tap water. The points given for gastric ulcerative lesions were as follows: (0) no lesion; (1) hyperaemia or slight capillary obstruction; or slight loss of the epithelium; or some petechiae even with pale mucosa without hyperaemia; (2) diffuse capillary obstructions or numerous petechiae; or diffuse loss of the epithelium; of a few surface lesions; (3) strong submucosa haemorrhage; or many petechiae and small surface lesions; or much anaemic mucosa (yellowish colour); or up to three small ulcers; (4) general pattern as in the previous numbers, plus up to ten small ulcers; or long erosions; or up to three medium sized ulcers; (5) pattern as in number 4, with up to 15 small ulcers; or up to 6 large ulcers; (6) pattern as previously, with up to ten large ulcers, plus small ulcers; (7) pattern as previously, plus up to ten large ulcers and small ulcers; cases of perforated ulcers. 30 Rats were divided into three batches of ten animals each, and subjected daily over a period of six days to the following oral treatment: 1st group: controls 2nd group: MRAP2 (50 mg/kg) 3rd group: MRAP2 (125 mg/kg) Six hours after the last treatment, the animals were killed and the lesion index was evaluated following the techniques and methods previously described.

stomach (gastric lesion) [2] = assay: Ulcerogenic activity in rats after a single administration; type: in vivo, male albino rats, Wistar strain; conditions: rats; for Average degree of lesion + E.E.: scale 0-7, controls 0.65 ± 0.1
Method: The ulcerogenic activity of MRAP2 was tested both after a single administration of the drug, and after prolonged administration.
In these tests, a total of 70 male albino rats of Wistar strain were used, having a weight of 200±20 grams.
The MRAP2 was administered diluted in tap water.
40 rats, fasted for 18 hours before the experiment, were divided into four batches of ten animals and treated orally as follows:
3rd group: MRAP2 (50 mg/kg)
4th group: MRAP2 (125 mg/kg).
The animals were killed after six hours. The stomach was withdrawn and the gastric lesion index was evaluated in terms of an arbitrary scale of values lying between 0. and 7 based on previous models proposed by other authors.
Furthermore, the treatment was randomised in order to eliminate any possible polarisation of the data.
The points given for gastric ulcerative lesions were as follows:
(1) hyperaemia or slight capillary obstruction; or slight loss of the epithelium; or some petechiae even with pale mucosa without hyperaemia;
(2) diffuse capillary obstructions or numerous petechiae; or diffuse loss of the epithelium; of a few surface lesions;
(3) strong submucosa haemorrhage; or many petechiae and small surface lesions; or much anaemic mucosa (yellowish colour); or up to three small ulcers;
(4) general pattern as in the previous numbers, plus up to ten small ulcers; or long erosions; or up to three medium sized ulcers;
(5) pattern as in number 4, with up to 15 small ulcers; or up to 6 large ulcers;
(6) pattern as previously, with up to ten large ulcers, plus small ulcers;
(7) pattern as previously, plus up to ten large ulcers and small ulcers; cases of perforated ulcers.

mice = assay: Acute toxicity in mice, endoperitoneal administration (LD50); type: in vivo; conditions: 20 animals per dose
Method: (§1) A total of 240 albino mice, 120 male and 120 female, of the Swiss strain and having an average weight of about 20 grams were used. The animals were divided into groups of 10 animals each, and kept caged for some days in an environment at a constant temperature (21°±1° C.) and humidity (60±5%). They were then fasted for 24 hours before the experiment, but were given free access to water.
(§2) The substance indicated by MRAP2 was administered, in a single administration, either orally or endoperitoneally. The LD50 was evaluated for each of the administration methods, using the method of Litchfield and Wilcoxon, J.Pharmacology, 96, 99, […], based on the mortality recorded for each group of mice over the seven days following administration.
(§3) Six groups of 20 animals, 10 male and 10 female, which had been given the active principle dissolved in a physiological solution were used.

[3] = as above; type: in vivo; conditions: mouse, in vivo, ip
Method: as §1, §2, §3

platelet aggregation = assay: In vivo platelet antiaggregation activity; parameters: species or system male rats, Wistar strain; conditions: rats
Method: This experiment was carried out on male rats of the Wistar strain having a weight of 320±20 grams. Both the MRAP2 and the aspirin (used as a comparison drug) were dissolved in a physiological solution, and the solutions, adjusted to pH 7.4, were administered orally in doeses of 3 mg/kg to two groups of three rats each. […] The concentration of the solution was adjusted to contain 100 mg of MRAP2 per ml. Blood samples were drawn from each animal 72 and 120 hours after treatment, for checking the platelet aggregation. In calculating the activity, the previous method was used (the average of the three maximum amplitudes of the curves obtained with the untreated rats was given the control figure of 100%).

rats = assay: Acute toxicity in rats, oral administration (LD50); type: in vivo; conditions: 20 animals per dose
Method: (§4) 200 albino rats, 100 male and 100 female, of the Wistar strain and weighing 130-150 grams were divided into groups of 10 animals each.
(§5) After being caged for some days at constant temperature (21°±1° C.) and humidity (60±5%), the animals were fasted for 24 hours before treatment.
(§6) The MRAP2 was administered in a single administration either orally or endoperitoneally, following the method heretofore described.
(§7) Teh LD50 was evaluated for each method of administration using the Litchfield and Wilcoxon method, based on the percentage mortality recorded in each group of rats during the seven days following treatment.
(§8) Five groups of 20 animals, 10 male and 10 female were used.

[4] = Acute toxicity in rats, oral administration (LD50); type: in vivo; conditions: rat, in vivo
Method: as §4, §5, §6, §7, §8

For `Cl.Clc1ccccc1CN1CCCC1` [MRAP2, N-(2-chlorobenzyl)-pyrrolidine hydrochloride], the “Average degree of lesion ± E.E.” value (stomach (gastric lesion) [1]; oral 50 mg/kg daily for six days, scale 0-7, controls 0.57 ± 0.1) was 0.86 ± 0.2, the “Average degree of lesion ± E.E.” value (stomach (gastric lesion) [1]; oral 125 mg/kg daily for six days, scale 0-7, controls 0.57 ± 0.1, P <0.05 with regard to controls) was 1.07 ± 0.2 and the “ulcerogenic activity (in words)” value (stomach (gastric lesion) [1]; oral daily for six days) was “significant only at a dose of 125 mg/kg, but even then only slight”. For the same molecule, the “Average degree of lesion + E.E.” value (stomach (gastric lesion) [2]; single oral 50 mg/kg) was 0.80 ± 0.1, the “Average degree of lesion + E.E.” value (stomach (gastric lesion) [2]; single oral 125 mg/kg, P <0.05 with regard to controls) was 1.15 ± 0.2 and the “incidence of ulcerative lesions (in words)” value (stomach (gastric lesion) [2]; single oral administration, relative to control animals) was “almost identical or slightly greater than that of the control animals”. The “No. of animals dead” value (mice; 75 mg/kg) was 0, the “No. of animals dead” value (mice; 100 mg/kg) was 2 and the “No. of animals dead” value (mice; 150 mg/kg) was 18. For the same molecule, the “No. of animals dead” value (mice; 200 mg/kg) was 20, the “No. of animals dead” value (mice; 300 mg/kg) was 20 and the “No. of animals dead” value (mice; 400 mg/kg) was 20. It also gave a mortality at 168 h ([3]; 75 mg/kg) of 0%, a mortality at 168 h ([3]; 100 mg/kg) of 10% and a mortality at 168 h ([3]; 150 mg/kg) of 90%. It also gave a mortality at 168 h ([3]; 200 mg/kg) of 100%, a mortality at 168 h ([3]; 300 mg/kg) of 100% and a mortality at 168 h ([3]; 400 mg/kg) of 100%. For the same molecule, the LD50 at 168 h ([3]; single administration, 7 days, 95% limits 105-130) was 116 mg/kg, the “antiaggregation activity in vivo (in words)” value (platelet aggregation; oral 3 mg/kg, comparison with aspirin) was “superior to that of aspirin” and the “% platelet antiaggregation activity on day 3” value (platelet aggregation; single oral dose 3 mg/kg, day 3 (72 hours)) was 38%. For the same molecule, the “% platelet aggregation on day 3” value (platelet aggregation; single oral dose 3 mg/kg, day 3 (72 hours), controls = 100) was 62%, the “% platelet antiaggregation activity on day 5” value (platelet aggregation; single oral dose 3 mg/kg, day 5 (120 hours)) was 37% and the “% platelet aggregation on day 5” value (platelet aggregation; single oral dose 3 mg/kg, day 5 (120 hours), controls = 100) was 63%. For the same molecule, the “No. of animals dead” value (rats; 400 mg/kg) was 0, the “No. of animals dead” value (rats; 500 mg/kg) was 4 and the “No. of animals dead” value (rats; 600 mg/kg) was 8. The “No. of animals dead” value (rats; 800 mg/kg) was 15, the “No. of animals dead” value (rats; 1000 mg/kg) was 20 and the mortality at 168 h ([4]; 400 mg/kg) was 0%. It also gave a mortality at 168 h ([4]; 500 mg/kg) of 20%, a mortality at 168 h ([4]; 600 mg/kg) of 40% and a mortality at 168 h ([4]; 800 mg/kg) of 75%. For the same molecule, the mortality at 168 h ([4]; 1000 mg/kg) was 100% and the LD50 at 168 h ([4]; single administration, 7 days, 95% limits 631-714) was 675 mg/kg.
